Experimental findings from patent publication US8431166B2, “Composition comprising the extract of Anemarrhena asphodeloides Bunge or the compounds isolated from the same for preventing and treating lipid metabolism disorder” (EWHA University-Industry Collaboration Foundation, priority 2009, dated 2013) are described below.

The subject of the first assay is Pre-adipocytes and 3T3-L1 cell. In words: Inhibitory effect on adipocyte differentiation (Oil-red O staining). The format is cell-based. To be noted: 3T3-L1, Oil-red O staining. The method, then: Oil-red O was dissolved in 100% isopropanol, and stirred for about 16 hrs to prepare a 0.3% Oil-red O staining solution. Distilled water was added to the solution at a ratio of 0.3% Oil-red O:distilled water=6:4 (v/v), and mixed with each other. The solution was filtered using 3M paper once, and filtered again using a 0.2 μm syringe filter.
Pre-adipocytes and 3T3-L1 cell (American Tissue Culture. Collection, ATCC) were maintained in DMEM (Dulbecco's Modified Eagle Medium, Gibco-BRL, Grand Island, N.Y., USA) supplemented with 10% bovine calf serum. 4×10^4 of cells were suspended in 0.5 ml and seeded in each well of 24-well plate. The cells were grown to confluence for 48 hrs in the same medium and the medium was replaced with DMEM containing insulin (5 μg/mL), 10 μM rosiglitazone, 1 μM dexamethasone, and 10% fetal bovine serum (FBS) to differentiate adipocytes. […] As a control group, the cells were treated with Resveratrol (Sigma-Aldrich, 3,4′,5-Trihydroxy-trans-stilbene, 5-[(1E)-2-(4-Hydroxyphenyl)ethenyl]-1,3-benzenediol), which is known to inhibit the adipocyte differentiation and prevent diabetes, dissolved in DMSO at the same concentration. The cells were then replaced with 10% FBS/DMEM supplemented with 5 μg/mL insulin after 48 hrs, and also re-treated with each compound. After 48 hrs, the medium was replaced with fresh 10% FBS/DMEM. Day 7 after induction of adipocyte differentiation, the differentiated adipocytes were examined by Oil-red O staining. After removing the culture medium, the cells were gently washed with PBS once, and fixed in 10% formalin at room temperature for 1 hr. […] To wash off the staining solution, the cells were washed with distilled water, and dried (uncapped). After image scanning, the stained cells were treated with 100% isopropanol for 10 min to wash out the staining solution. The absorbance at 500 nm was measured to compare the Oil-red O staining between the compound-treated groups and the control group.
Consider `COc1ccc(CCCc2ccc(O)cc2)c(O)c1` [Broussonin A], for which the “inhibitory effects on adipocyte differentiation (in words)” value is “showed inhibitory effects on adipocyte differentiation”.
`O=C(/C=C/c1ccc(O)cc1)c1ccc(O)cc1O` [Compound 8, 2′,4′,4-Trihydroxychalcone]: the “inhibitory effects on adipocyte differentiation (in words)” value is given as “showed inhibitory effects on adipocyte differentiation”.
As for `COc1cc(O)ccc1C(=O)/C=C/c1ccc(O)cc1` [Compound 10, 2′-O-Methylisoliquiritigenin], the “inhibitory effects on adipocyte differentiation (in words)” value is given as “showed inhibitory effects on adipocyte differentiation”.
On the same count and under the same terms, the same measure for `O=C(C#Cc1ccc(O)cc1)c1ccc(O)cc1` [Compound 3, 1,3-bis(4-hydroxyphenyl)prop-2-yn-1-one]: “excellent inhibitory effects on adipocyte differentiation even at lower concentration than the control group Resveratrol”; for (−)-4′-O-Methylnyasol [Compound 4]: “showed inhibitory effects on adipocyte differentiation”.

The assay is the same for the next values; noted with them: 3T3-L1, Oil-red O staining, day 7; IC50 determined using BioDataFit 1.02; read-out: Inhibitory Activities of Isolated Compound on Adipocyte Differentiation(IC50).
In the case of `COc1cc(O)cc(O)c1C(=O)CCc1ccc(O)cc1` [Compound 13, 2′-O-methylphloretin], the IC50 was over 500 µM.
Turning to Broussonin A [Compound 6], the IC50 is 74.5 µM.
As to `COc1cc(O)ccc1C(=O)/C=C/c1ccc(O)cc1` [Compound 10, 2′-O-Methylisoliquiritigenin], the IC50 came to 41.8 µM.
As to `Oc1ccc(CC2COc3cc(O)ccc3C2)cc1` (stereo not drawn) [Compound 9, 7,4′-Dihydroxyhomoisoflavane], the half-inhibitory concentration (IC50) was over 500 µM.
In the case of `C=CC(CC(=O)c1ccc(O)cc1)c1ccc(O)cc1` (stereo not drawn) [Compound 7, 1,3-bis-di-p-hydroxyphenyl-4-penten-1-one], the IC50 is 326 µM.
Still for that read-out and setting: the same measure for (−)-4′-O-Methylnyasol [Compound 4]: 45.9 µM.

The same assay, now with this note: Mus musculus, 168 h; 3T3-L1, Oil-red O staining, day 7; IC50 determined using BioDataFit 1.02; read-out: Inhibitory Activities of Isolated Compound on Adipocyte Differentiation(IC50).
For `Cc1c(O)cc2c(c1O)C(=O)/C(=C/c1ccc(O)cc1)CO2` [Compound 1, (E)-5,7-Dihydroxy-3-(4′-hydroxybenzylidene)-6-methylchroman-4-one], the IC50 was 336 µM.
As for `COc1cc(O)cc2c1C(=O)CC(c1ccc(O)cc1)O2` (stereo not drawn) [Compound 12, 4′,7-Dihydroxy-5-methoxyflavanone], the IC50 was 260 µM.
The same measure, in the same setting: the same measure for `O=C(/C=C/c1ccc(O)cc1)c1ccc(O)cc1O` [Compound 8, 2′,4′,4-Trihydroxychalcone]: 96.4 µM; for `Oc1ccc(/C=C/c2cc(O)cc(O)c2)cc1` [Resveratrol, 3,4′,5-Trihydroxy-trans-stilbene, reference compound]: 31.4 µM.
Take `C=C[C@H](/C=C\c1ccc(O)cc1)c1ccc(O)cc1` [Compound 5, (−)-Nyasol]: the IC50 amounted to 108 µM.
Take `O=C(/C=C/c1ccc(O)cc1)c1ccc(O)cc1` [Compound 14, 4,4′-Dihydroxychalcon]: the IC50 is over 500 µM.
Take `O=C(C#Cc1ccc(O)cc1)c1ccc(O)cc1` [Compound 3, 1,3-bis(4-hydroxyphenyl)prop-2-yn-1-one]: the IC50 turned out to be 5.3 µM.

In general, IC50 refers to the point on the concentration scale where inhibition reaches its midpoint.
